Data on 23 compounds can be found in patent US20250236608A1, “EGFR INHIBITORS” (Blueprint Medicines Corporation, priority 2022, published 2025).

The target of one assay is EGFR (d746-750) (Homo sapiens (Human), UniProt P00533, DEL746-750). The assay can be described thus: Biochemical EGFR inhibition assay, EGFR (d746-750). The note with it: Caliper mobility shift; 1.0 mM ATP or ATP Km; read-out: Enz EGFR_Exon19-del746-750 IC50.
Assay [1] addresses pEGFR (Tyr1068) in PC-9 cells (Ex19Del) (Homo sapiens (Human), UniProt P00533, DEL746-750). The experiment in a line: PC-9 pEGFR AlphaLISA assay. The note with it: 4 hours incubation, p-EGFR (Tyr1068) AlphaLISA, read-out: Ext pEGFR_PC-9 Ex19Del IC50. It is filed as cell-based. A digest of the protocol: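 First, cells settled overnight in 10% FBS medium. Second, a 10-point, 4-fold series of test agents was applied for 4 h at 37° C. Third, lysates were probed with AlphaLISA acceptor and donor beads, incubated overnight in the dark. Last, IC50 was taken from the dose-response.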

Another assay deals with EGFR L858R (Homo sapiens (Human), UniProt P00533, L858R). The experiment in a line: Biochemical EGFR inhibition assay, EGFR L858R. The note with it: Caliper mobility shift; 1.0 mM ATP or ATP Km; read-out: Enz EGFR_L858R IC50.
Sequence of EGFR L858R (P00533 25-1210 L858R): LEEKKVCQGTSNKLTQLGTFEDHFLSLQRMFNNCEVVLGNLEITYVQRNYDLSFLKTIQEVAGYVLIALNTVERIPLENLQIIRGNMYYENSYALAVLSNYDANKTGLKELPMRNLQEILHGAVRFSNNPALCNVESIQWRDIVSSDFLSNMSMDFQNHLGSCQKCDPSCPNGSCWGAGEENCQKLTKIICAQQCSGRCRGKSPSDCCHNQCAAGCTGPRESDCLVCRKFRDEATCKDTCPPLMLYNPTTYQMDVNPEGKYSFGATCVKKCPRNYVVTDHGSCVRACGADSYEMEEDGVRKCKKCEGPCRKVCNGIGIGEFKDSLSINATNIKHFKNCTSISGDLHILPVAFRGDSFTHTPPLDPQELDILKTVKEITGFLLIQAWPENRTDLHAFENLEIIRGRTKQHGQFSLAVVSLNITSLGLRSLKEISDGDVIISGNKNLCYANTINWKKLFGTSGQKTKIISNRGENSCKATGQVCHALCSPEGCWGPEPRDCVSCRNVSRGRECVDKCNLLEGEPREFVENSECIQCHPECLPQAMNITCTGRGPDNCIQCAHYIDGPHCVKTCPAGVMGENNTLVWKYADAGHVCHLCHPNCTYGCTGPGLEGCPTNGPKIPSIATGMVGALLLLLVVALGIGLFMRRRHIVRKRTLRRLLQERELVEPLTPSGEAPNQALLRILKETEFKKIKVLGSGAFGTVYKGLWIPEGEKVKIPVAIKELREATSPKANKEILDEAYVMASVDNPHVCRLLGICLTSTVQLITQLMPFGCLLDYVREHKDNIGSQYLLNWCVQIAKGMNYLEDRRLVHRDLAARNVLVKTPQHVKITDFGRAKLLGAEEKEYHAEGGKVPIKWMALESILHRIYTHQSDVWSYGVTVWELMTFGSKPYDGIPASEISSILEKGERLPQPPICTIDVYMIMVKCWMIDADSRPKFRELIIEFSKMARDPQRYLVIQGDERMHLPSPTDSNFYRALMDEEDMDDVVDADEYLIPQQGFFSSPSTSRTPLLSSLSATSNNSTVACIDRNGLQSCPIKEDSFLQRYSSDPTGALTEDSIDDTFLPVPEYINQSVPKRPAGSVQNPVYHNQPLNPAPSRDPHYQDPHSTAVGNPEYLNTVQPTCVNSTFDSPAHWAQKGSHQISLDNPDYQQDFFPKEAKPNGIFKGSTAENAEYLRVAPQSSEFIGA

Sequence of EGFR (d746-750) (P00533 other isoform, or with tags, fused parts or gaps del 1-694/del 746-750 limits assumed): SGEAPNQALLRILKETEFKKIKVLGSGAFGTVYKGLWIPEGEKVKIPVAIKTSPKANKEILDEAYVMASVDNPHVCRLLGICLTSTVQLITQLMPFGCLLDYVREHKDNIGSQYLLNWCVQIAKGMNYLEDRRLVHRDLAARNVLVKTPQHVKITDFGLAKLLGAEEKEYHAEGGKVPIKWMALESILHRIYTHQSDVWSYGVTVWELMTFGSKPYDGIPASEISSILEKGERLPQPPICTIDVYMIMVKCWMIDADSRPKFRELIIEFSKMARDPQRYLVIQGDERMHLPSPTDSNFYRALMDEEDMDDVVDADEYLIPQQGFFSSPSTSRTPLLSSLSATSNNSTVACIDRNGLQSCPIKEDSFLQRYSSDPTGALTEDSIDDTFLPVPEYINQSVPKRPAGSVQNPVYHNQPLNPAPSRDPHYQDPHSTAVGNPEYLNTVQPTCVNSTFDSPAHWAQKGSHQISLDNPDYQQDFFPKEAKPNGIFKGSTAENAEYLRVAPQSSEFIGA
Sequence of pEGFR (Tyr1068) in PC-9 cells (Ex19Del) (P00533 other isoform, or with tags, fused parts or gaps del 746-750): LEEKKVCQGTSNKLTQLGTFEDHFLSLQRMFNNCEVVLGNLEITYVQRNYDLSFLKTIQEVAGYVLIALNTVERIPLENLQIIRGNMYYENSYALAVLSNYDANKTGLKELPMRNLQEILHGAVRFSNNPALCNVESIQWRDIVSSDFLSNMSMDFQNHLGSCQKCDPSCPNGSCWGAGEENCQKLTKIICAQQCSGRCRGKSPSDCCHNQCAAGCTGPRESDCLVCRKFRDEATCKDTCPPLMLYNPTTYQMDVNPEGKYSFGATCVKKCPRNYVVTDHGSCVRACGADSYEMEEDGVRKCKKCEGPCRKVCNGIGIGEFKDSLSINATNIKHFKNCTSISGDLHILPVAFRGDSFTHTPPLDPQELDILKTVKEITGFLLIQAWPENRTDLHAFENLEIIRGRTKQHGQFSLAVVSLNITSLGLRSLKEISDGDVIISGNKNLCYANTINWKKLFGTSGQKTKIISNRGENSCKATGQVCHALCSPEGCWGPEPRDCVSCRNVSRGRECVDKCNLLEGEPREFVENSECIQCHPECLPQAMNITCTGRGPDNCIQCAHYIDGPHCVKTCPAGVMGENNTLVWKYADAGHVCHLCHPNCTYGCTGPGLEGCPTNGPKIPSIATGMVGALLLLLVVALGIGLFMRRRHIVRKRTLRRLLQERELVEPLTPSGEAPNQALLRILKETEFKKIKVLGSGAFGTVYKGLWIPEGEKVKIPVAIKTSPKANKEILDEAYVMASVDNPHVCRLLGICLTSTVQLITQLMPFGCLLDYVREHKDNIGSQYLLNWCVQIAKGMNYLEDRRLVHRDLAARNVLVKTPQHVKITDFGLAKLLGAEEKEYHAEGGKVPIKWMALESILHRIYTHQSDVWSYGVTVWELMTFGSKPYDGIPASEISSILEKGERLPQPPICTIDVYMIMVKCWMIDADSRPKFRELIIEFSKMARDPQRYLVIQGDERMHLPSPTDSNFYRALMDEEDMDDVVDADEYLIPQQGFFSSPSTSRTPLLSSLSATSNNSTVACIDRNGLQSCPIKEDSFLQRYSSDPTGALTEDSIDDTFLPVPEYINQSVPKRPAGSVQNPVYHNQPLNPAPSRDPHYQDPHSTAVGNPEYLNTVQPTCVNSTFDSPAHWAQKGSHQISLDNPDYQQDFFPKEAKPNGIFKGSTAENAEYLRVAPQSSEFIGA

As for `COc1cc2ncnc(-c3cn(C)nc3-c3ccccc3)c2nc1-c1ccc2c(c1)CNC2=O` [Example 152, 5-(7-methoxy-4-(1-methyl-3-phenyl-1H-pyrazol-4-yl)pyrido[3,2-d]pyrimidin-6-yl) isoindolin-1-one], the IC50 on EGFR (d746-750) amounted to 1 nM; in assay [1], 1.9 nM; at EGFR L858R, 2 nM.

Turning to `COc1cc2ncnc(-c3cn(C)nc3-c3ccccc3)c2cc1NC(=O)c1cccc(F)c1C` [Example 200, 3-fluoro-N-(7-methoxy-4-(1-methyl-3-phenyl-1H-pyrazol-4-yl)quinazolin-6-yl)-2-methylbenzamide], the results for the IC50 (on EGFR (d746-750); in assay [1]; on EGFR L858R) were 2.4 nM, 8.4 nM and 5.7 nM, respectively.

In the case of `COc1cc2ncnc(-c3cn(C)nc3-c3ccccc3)c2nc1O[C@@H](C)c1nnc(C)o1` [Example 37, (S)-2-(1-((7-methoxy-4-(1-methyl-3-phenyl-1H-pyrazol-4-yl)pyrido[3,2-d]pyrimidin-6-yl)oxy)ethyl)-5-methyl-1,3,4-oxadiazole], the IC50 on EGFR (d746-750) worked out at 2 nM; in assay [1], 4.6 nM; at EGFR L858R it was 5.3 nM.

Consider `COc1cc2ncnc(-c3cn(C)nc3-c3ccccc3)c2nc1NC(=O)c1ccccc1F` [Example 359, 2-fluoro-N-(7-methoxy-4-(1-methyl-3-phenyl-1H-pyrazol-4-yl)pyrido[3,2-d]pyrimidin-6-yl)benzamide], for which the half-inhibitory concentration (IC50) was found to be 0.7 nM at EGFR (d746-750), 1.6 nM in assay [1] and 1.6 nM on EGFR L858R.

For the compound `COc1cc2ncnc(-c3cn(C)nc3-c3ccccc3)c2cc1NC(=O)c1c(Cl)cccc1Cl` [Example 231, 2,6-dichloro-N-(7-methoxy-4-(1-methyl-3-phenyl-1H-pyrazol-4-yl)quinazolin-6-yl)benzamide], the IC50 came to 1 nM on EGFR (d746-750), 2.4 nM in assay [1] and 1.5 nM on EGFR L858R.

Take `COc1cc2ncnc(-c3cn(C)nc3-c3ccccc3)c2cc1OC(=O)N1C[C@H](C)N(C)C[C@@H]1C` [Example 97, 7-methoxy-4-(1-methyl-3-phenyl-1H-pyrazol-4-yl)quinazolin-6-yl (2S,5S)-2,4,5-trimethylpiperazine-1-carboxylate]: the IC50 on EGFR (d746-750) was found to be 4.9 nM; in assay [1] it was 12.4 nM; at EGFR L858R it was 7.8 nM.

For the compound `CCn1cc(-c2ncnc3cc(OC)c(NC(=O)c4cccnc4)cc23)c(-c2ccccc2)n1` [Example 332, N-(4-(1-ethyl-3-phenyl-1H-pyrazol-4-yl)-7-methoxyquinazolin-6-yl) nicotinamide], the values for the IC50 (at EGFR (d746-750); in assay [1]; at EGFR L858R) were 1.6 nM, 2.1 nM and 2.3 nM, respectively.

Regarding `COc1cc2ncnc(-c3cn(C)nc3-c3ccccc3)c2cc1NC(=O)c1ccccc1N1CCNCC1` [Example 227, N-(7-methoxy-4-(1-methyl-3-phenyl-1H-pyrazol-4-yl)quinazolin-6-yl)-2-(piperazin-1-yl)benzamide], the IC50 amounted to 2.7 nM on EGFR (d746-750), 6.7 nM in assay [1] and 15.2 nM at EGFR L858R.

As for `CC(C)Oc1cc2ncnc(-c3cn(C)nc3-c3ccccc3)c2cc1[C@H](C)O` (single isomer, unassigned) [Example 113, (S)-1-(7-isopropoxy-4-(1-methyl-3-phenyl-1H-pyrazol-4-yl)quinazolin-6-yl)ethan-1-ol or (R)-1-(7-isopropoxy-4-(1-methyl-3-phenyl-1H-pyrazol-4-yl)quinazolin-6-yl)ethan-1-ol], the IC50 at EGFR (d746-750) is 2.4 nM; in assay [1] it was 11.2 nM; at EGFR L858R it was 5.5 nM.

As to `Cc1ncsc1C(=O)Nc1cc2c(-c3cn(C)nc3-c3ccccc3)ncnc2cc1OCCN(C)C` [Example 303, N-(7-(2-(dimethylamino)ethoxy)-4-(1-methyl-3-phenyl-1H-pyrazol-4-yl)quinazolin-6-yl)-4-methylthiazole-5-carboxamide], the values for the IC50 (on EGFR (d746-750); in assay [1]; on EGFR L858R) were 2.9 nM, 8.8 nM and 11 nM, respectively.

For `COc1cc2ncnc(-c3cn(C)nc3-c3c(F)cccc3F)c2cc1NC(=O)C1CC1` [Example 338, N-(4-(3-(2,6-difluorophenyl)-1-methyl-1H-pyrazol-4-yl)-7-methoxyquinazolin-6-yl)cyclopropanecarboxamide], the half-maximal inhibitory concentration (IC50) came to 1.2 nM on EGFR (d746-750), 2.3 nM in assay [1] and 1.9 nM on EGFR L858R.

With `COc1cc2ncnc(-c3c[nH]nc3-c3ccccc3)c2nc1NC(=O)C1(C(F)(F)F)CC1` [Example 372, N-(7-methoxy-4-(3-phenyl-1H-pyrazol-4-yl)pyrido[3,2-d]pyrimidin-6-yl)-1-(trifluoromethyl)cyclopropane-1-carboxamide], the results for the IC50 (on EGFR (d746-750); in assay [1]; at EGFR L858R) were 0.7 nM, 1.5 nM and 1.6 nM, respectively.

Consider `COc1cc2ncnc(-c3cn(C)nc3-c3ccc(F)cc3F)c2cc1N1CCOCC1` [Example 166, 4-(4-(3-(2,4-difluorophenyl)-1-methyl-1H-pyrazol-4-yl)-7-methoxyquinazolin-6-yl)morpholine], for which the IC50 was found to be 0.7 nM at EGFR (d746-750), 3.2 nM in assay [1] and 1.7 nM at EGFR L858R.

On to `COc1cc2ncnc(-c3cn(C)nc3-c3ccccc3)c2nc1NC(=O)[C@@H]1C[C@H]2C[C@H]2N1C` [Example 418, (1R,3S,5R)—N-(7-methoxy-4-(1-methyl-3-phenyl-1H-pyrazol-4-yl)pyrido[3,2-d]pyrimidin-6-yl)-2-methyl-2-azabicyclo[3.1.0]hexane-3-carboxamide], for which the values for the 50% inhibitory concentration (IC50) (on EGFR (d746-750); in assay [1]; at EGFR L858R) were 0.6 nM, 1.8 nM and 1.8 nM, respectively.

With `COc1cc2ncnc(-c3cn(C)nc3-c3ccccc3)c2cc1NC(=O)c1cnc(C)c(F)c1` [Example 196, 5-fluoro-N-(7-methoxy-4-(1-methyl-3-phenyl-1H-pyrazol-4-yl)quinazolin-6-yl)-6-methylnicotinamide], the values for the half-maximal inhibitory concentration (IC50) (on EGFR (d746-750); in assay [1]; at EGFR L858R) were 0.9 nM, 1.5 nM and 1.7 nM, respectively.

With `COc1cc2ncnc(-c3cn(C)nc3-c3ccccc3)c2cc1NC(=O)c1c(F)cccc1F` [Example 331, 2,6-difluoro-N-(7-methoxy-4-(1-methyl-3-phenyl-1H-pyrazol-4-yl)quinazolin-6-yl)benzamide], the IC50 was determined as 1 nM on EGFR (d746-750), 1.5 nM in assay [1] and 1.7 nM at EGFR L858R.

On to `CCn1cc([C@@H](C)Oc2nc3c(-c4cn(C)nc4-c4ccccc4)ncnc3cc2OC)nn1` [Example 35, (R)-6-(1-(1-ethyl-1H-1,2,3-triazol-4-yl)ethoxy)-7-methoxy-4-(1-methyl-3-phenyl-1H-pyrazol-4-yl)pyrido[3,2-d]pyrimidine], for which the IC50 at EGFR (d746-750) was determined as 1.9 nM; in assay [1] it was 2.7 nM; at EGFR L858R, 2.3 nM.

Turning to `COc1cc2ncnc(-c3cn(CC(F)F)nc3-c3ccccc3)c2cc1NC(=O)c1cnsc1` [Example 271, N-(4-(1-(2,2-difluoroethyl)-3-phenyl-1H-pyrazol-4-yl)-7-methoxyquinazolin-6-yl)isothiazole-4-carboxamide], the IC50 on EGFR (d746-750) was 0.8 nM; in assay [1] it was 1 nM; at EGFR L858R, 1.3 nM.

With `COc1cc2ncnc(-c3cn(C)nc3-c3ccccc3)c2nc1NC(=O)[C@H](C)N(C)C` [Example 390, (S)-2-(dimethylamino)-N-(7-methoxy-4-(1-methyl-3-phenyl-1H-pyrazol-4-yl)pyrido[3,2-d]pyrimidin-6-yl) propenamide], the values for the IC50 (at EGFR (d746-750); in assay [1]; at EGFR L858R) were 3.9 nM, 8.7 nM and 9.3 nM, respectively.

Consider `COc1cc2ncnc(-c3cn(C)nc3-c3ccccc3)c2cc1OC(=O)N1CCNCC1(C)C` [Example 86, 7-methoxy-4-(1-methyl-3-phenyl-1H-pyrazol-4-yl)quinazolin-6-yl 2,2-dimethylpiperazine-1-carboxylate], for which the IC50 was found to be 2.5 nM at EGFR (d746-750), 5.8 nM in assay [1] and 5 nM on EGFR L858R.

Consider `COc1cc2ncnc(-c3cn(C)nc3-c3c(F)cccc3F)c2cc1NC(=O)[C@@]12C[C@@H]1CN(C)C2` [Example 292, (1S,5S)—N-(4-(3-(2,6-difluorophenyl)-1-methyl-1H-pyrazol-4-yl)-7-methoxyquinazolin-6-yl)-3-methyl-3-azabicyclo[3.1.0]hexane-1-carboxamide], for which the values for the concentration for half-maximal inhibition (IC50) (on EGFR (d746-750); in assay [1]; at EGFR L858R) were 3.2 nM, 9.6 nM and 145 nM, respectively.

Consider `COc1cc2ncnc(-c3cn(C)nc3-c3ccccc3)c2nc1O[C@H](C)c1cscn1` (single isomer, unassigned) [Example 49, (R)-4-(1-((7-methoxy-4-(1-methyl-3-phenyl-1H-pyrazol-4-yl)pyrido[3,2-d]pyrimidin-6-yl)oxy)ethyl)thiazole or (S)-4-(1-((7-methoxy-4-(1-methyl-3-phenyl-1H-pyrazol-4-yl)pyrido[3,2-d]pyrimidin-6-yl)oxy)ethyl)thiazole], for which the IC50 at EGFR (d746-750) came to 0.6 nM; in assay [1] it was 1.2 nM; on EGFR L858R it was 1.3 nM.

As to `CCN1CCN(C(=O)Oc2cc3c(-c4cn(C)nc4-c4ccccc4)ncnc3cc2OC)[C@@H](C)C1` [Example 75, 7-methoxy-4-(1-methyl-3-phenyl-1H-pyrazol-4-yl)quinazolin-6-yl (S)-4-ethyl-2-methylpiperazine-1-carboxylate], the IC50 turned out to be 2.2 nM on EGFR (d746-750), 3.6 nM in assay [1] and 3.6 nM on EGFR L858R.
